Among the data in ChEMBL document CHEMBL5233287, “In Vitro Hypoglycemic Diterpenoids from the Roots of Croton yunnanensis” (J Nat Prod, 2023) are Activity values, retold here.

SMILES strings stand for the structures. The source made the active and inactive calls. The calls are words filed in the database; no cut-off is given here.

Assay [1] has as its system 3T3-L1. As to the kind of experiment: Hypoglycemic activity in insulin-resistant mouse 3T3-L1 cells assessed as increase in 2-deoxyglucose uptake treated with compound for 10 mins followed by 2-deoxyglucose challenge for 30 mins by liquid scintillation counting analysis. Format: functional, cell-based. To be noted: time 40.0 min.
Assay [2] relates to 3T3-L1. In words: Insulin sensitizing activity in mouse 3T3-L1 cells assessed as increase in 2-deoxyglucose uptake at 5 to 20 uM treated with compound and insulin for 10 mins followed by 2-deoxyglucose challenge for 30 mins by liquid scintillation counting analysis. The class given is functional, cell-based. As to conditions: dose 5-20 µM, time 40.0 min.

Turning to `COC(=O)[C@H]1C=CC[C@H]2[C@@]13CC[C@@H](C)[C@]21C[C@@H](C2=CC(=O)O[C@H]2OC)O[C@@H]1O3`, the outcome in the assay with 3T3-L1 [1] was Active.
With `C=C1CC[C@]23[C@@H](OC(=O)c4ccccc4)O[C@H]4O[C@H](c5ccoc5)C[C@]14[C@H]2CCC(=O)[C@@]3(O)C(=O)OC`, the result in the assay with 3T3-L1 [2] and in the assay on 3T3-L1 [1] was Active.
As for `COC(=O)C1=CCC[C@@H]2[C@]34C[C@@H](c5ccoc5)O[C@@H]3O[C@]12CC[C@H]4C`, the result in the assay on 3T3-L1 [1] was Active.
As to `COC(=O)C1=CCC[C@@H]2[C@]34C[C@@H](C5=CC(=O)O[C@H]5OC)O[C@@H]3O[C@]12CC[C@H]4C`, the result in the assay with 3T3-L1 [2] and in the assay on 3T3-L1 [1] was Active.
With `COC(=O)C1=CCC[C@@H]2[C@]34C[C@@H](C5=C[C@@H](OC)OC5=O)O[C@@H]3O[C@]12CC[C@H]4C`, the result in the assay on 3T3-L1 [1] was Active.
On the same count and under the same terms, then `COC(=O)C1=CCC[C@H]2[C@@]13CC[C@@H](C)[C@]21C[C@@H](C2=C[C@@H](OC)OC2=O)O[C@@H]1OC3=O`, with “Active”.
The same measure, in the same setting: next, `COC(=O)C1=CCC[C@H]2[C@@]13CC[C@@H](C)[C@]21C[C@@H](C2=CC(=O)O[C@H]2OC)O[C@@H]1O[C@@H]3OC`: “Active”.
